We go through five substances from patent US20040197346A1, “Materials and methods for intracellular transport and their uses” (Marie Curie Cancer Care, priority 1997, published 2004).

Assay [1] in a line: Transport activity of VP22 sub-sequences. In kind it is cell-based. As to conditions: sub-sequences of full HSV1 VP22 sequence (1-301).
The test system of assay [2] is Cos-1 cells. Nature of the assay: Delivery by intercellular trafficking, immunofluorescence of transfected Cos-1 cell monolayers. In kind it is cell-based. As to conditions: transfected Cos-1 cells, 48 h, methanol-fixed, anti-VP22/-p53/-epitope immunofluorescence. The method, then:
Cos-1 cells were grown in Dulbecco's modified MEM supplemented with 10% new born calf serum at 37° C. with 5% CO2.
Transfections were performed using the BES/CaCl2 method (Elliott and O'Hare, 1997) with 200 ng test plasmid with 1800 ng pUB19. Transfections were allowed to proceed for 48 h at which point the monolayers were harvested for immunofluorescence or western blot analysis.
Cell monolayers on coverslips were fixed with 100% methanol for 15 mins at room temperature and labelled as described in Elliott and O'Hare (1997). All antibodies were diluted in PBS+10% serum. VP22 was detected using a rabbit polyclonal antibody AGV30 (1:500), p53 was detected using a mouse monoclonal antibody DO-1 (Santa-Cruz Ltd), the CMV epitope was detected using a mouse monoclonal antibody CMV. LNA (Capricorn Ltd). Images were obtained using a Bio-Rad MRC600 confocal microscope.
The VP22-p53 fusion protein construct was generated by cloning a full length p53 PCR fragment C-terminal to VP22 into a unique Bam site, keeping both VP22 and the CMV epitope in frame.
We constructed an epitope-tagged full length in-frame VP22-p53 fusion protein construct (FIG. 2). This vector generates a fusion protein of approx 90 kDa when expressed in Cos-1 cells, with very little protein degradation as judged by western blot analysis (FIG. 3). […]

“aa 159-301: polypeptide corresponding to aminoacids 159-301 of the full HSV1 VP22 sequence (1-301)”: the transport activity entry in assay [1] is recorded as “transport activity is present”.

Consider “aa 60-301: polypeptide corresponding to aminoacids 60-301 of the full HSV1 VP22 sequence (1-301)”, for which the transport activity result in assay [1] is given as “transport activity is present”.

As to “aa 175-301: polypeptide consisting of aa 175-301 of the VP22 sequence”, the transport activity entry in assay [1] is on record as “markedly less transport activity”.

“VP22: HSV-1 virion protein VP22, 38 kDa, with intercellular trafficking mechanism”: the “delivery by intercellular trafficking (spread into nuclei of neighbouring non-expressing cells)” value in assay [2] is reported as “clear spread to the nuclei of adjacent cells”.

On to “deletion of the 34-aminoacid C-terminal sequence from VP22 of HSV1: VP22 of HSV1 lacking its 34-aminoacid C-terminal sequence”, for which, in assay [1], the transport activity result is “abolishes transport-activity”.
